Data as given in ChEMBL document CHEMBL1201862, “PubChem BioAssay data set” (2004).
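1) Cells in 96-well plates. 2) Compound, 48 h, 5 concentrations. 3) Linear interpolation between surrounding doses. 4) Unreached endpoint = highest concentration. GI50: concentration for 50% inhibition of growth.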 Calls of active or inactive are those of the source. No stated cut-off is given here; in the data, active = GI50 up to about 1.1 µM and inactive = higher.

Columns and labels:
Test in all cases: NCI-60 cell line screen, 48 h
A549 = system: A549
Hs-578T = system: Hs-578T
SK-MEL-5 = system: SK-MEL-5
OVCAR-5 = system: OVCAR-5
HOP-92 = system: HOP-92
SK-MEL-2 = system: SK-MEL-2
KM-20L2 = system: KM-20L2
OVCAR-8 = system: OVCAR-8
SF-539 = system: SF-539
T47D = system: T47D
PC-3 = system: PC-3
786-0 = system: 786-0
BT-549 = system: BT-549
OVCAR-4 = system: OVCAR-4
SW-620 = system: SW-620
MDA-MB-435 = system: MDA-MB-435
MCF7 = system: MCF7
MDA-MB-231 = system: MDA-MB-231
NCI-H460 = system: NCI-H460
UO-31 = system: UO-31

Measured: GI50

CCCC(=O)OC1C(C(O)CO)OC2OC(C)(C)OC21 (stereo not given)
inactive: A549 > 100 µM | Hs-578T > 100 µM | SK-MEL-5 > 100 µM | OVCAR-5 > 100 µM | HOP-92 > 100 µM | SK-MEL-2 > 100 µM | KM-20L2 > 100 µM | OVCAR-8 > 100 µM | SF-539 > 100 µM | T47D > 100 µM | PC-3 > 100 µM | 786-0 > 100 µM | BT-549 > 100 µM | OVCAR-4 > 100 µM | SW-620 > 100 µM | MDA-MB-435 > 100 µM | MCF7 > 100 µM | MDA-MB-231 > 100 µM | NCI-H460 > 100 µM | UO-31 > 100 µM
